Here are results for 13 molecules from EP4722205A1, “HETEROCYCLIC COMPOUND AND NOXIOUS ARTHROPOD-CONTROLLING COMPOSITION CONTAINING SAME” (Sumitomo Chemical Company, Limited, priority 2023, dated 2024).

Format in all cases: in vivo
Assay [1] deals with cotton aphids (Aphis gossypii). Kind of assay: Test Method 1: foliar spray on cucumber seedling infested with cotton aphids (Formulation example 1). The following applies: 120 h, spray 10 mL/seedling, examined after 5 days, 25°C, read-out: controlling value.
Assay [2] has as its system diamondback moth (Plutella xylostella). In words: Test Method 4: sprayed cabbage leaves fed to second instar diamondback moth. The following applies: 120 h, second instar larvae, after 5 days, 25°C, read-out: mortality of insects. Here is the method:
(§1) Next, an efficacy of the present compound on controlling harmful arthropods is shown by Test examples. The following tests in the test examples below were conducted at 25°C.
Test compounds are made to a formulation according to a similar method to that described in the Formulation example 1, and thereto is added water containing 0.03 v/v% of Shindain (registered trademark) to prepare a diluted solution containing a prescribed concentration of the test compound.
Cabbage (Brassicae oleracea) seedling (on the developmental stage of the second to third true leaf) is planted in a cup, and the diluted solutions are sprayed into the seedling at a ratio of 20 mL/seedling. Thereafter, the stem and leaf thereof are cut out and then is installed into a cup that is covered with filter paper on the bed of the cup. Five (5) diamondback moth (Plutella xylostella) at the second instar larval stage are released into the cup. After 5 days, the number of the surviving insects is counted, and the mortality of insects is calculated by the following equation. [formula]

The subject of assay [3] is Western corn rootworms (Diabrotica virgifera virgifera). Kind of assay: Test Method 5: corn seedling immersion, Western corn rootworm. The following applies: 120 h, read-out: mortality of insects. Here is the method: as §1
Each 1 mg of the test compounds is dissolved into 50 µL of a mixed solution of polyoxyethylene sorbitan monolaurate and acetone (polyoxyethylene sorbitan monolaurate: acetone = 5 : 95 (v/v ratio)). Thereto is added water containing 0.03% by volume of Shindain (registered trademark) to prepare a diluted solution containing a prescribed concentration of the test compound.
A young entire seedling of Corns (Zea mays) is immersed into the diluted solution for 30 seconds. Thereafter, each two grains of the seedlings are installed in a plastic petri dish ([…]), and 10 Western corn rootworms (Diabrotica virgifera virgifera) at the second instar larval stage are released into the dish. After 5 days, the number of the dead insects is counted, and the mortality of insects is calculated by the following equation. Mortality(%) = (Numberofdeadinsects/10) × 100 [formula]

The subject of assay [4] is diamondback moth (Plutella xylostella). In words: Test Method 10: sprayed cabbage seedling, third instar diamondback moth (Formulation example 5). Particulars: 144 h, third instar larvae, after 6 days, 25°C, read-out: controlling value. How it is done: (§2) The following tests in the test examples below were conducted at 25°C.
Cabbage (Brassicae oleracea) seedling (on the developmental stage of the third to fourth true leaf) is planted in a cup, and the diluted solutions are sprayed into the seedling at a ratio of 20 mL/seedling. Thereafter, ten (10) diamondback moth (Plutella xylostella) at the third instar larval stage are released onto the seedling. After 6 days, the number of the surviving insects is counted, and the mortality of insects is calculated by the following equation. [formula]

Assay [5] relates to cotton aphids (Aphis gossypii). In words: Test Method 11: foliar spray on cucumber seedling infested with cotton aphids (Formulation example 5). The following applies: 120 h, spray 10 mL/seedling, examined after 5 days, 25°C, read-out: controlling value.
Assay [6] concerns common house mosquitos (Culex pipiens pallens). Kind of assay: Test Method 12: mosquito larvae released into diluted solution. Particulars: 24 h, last instar larvae, after 1 day, 25°C, read-out: controlling value. How it is done:
as §2
Into the diluted solution, 30 common house mosquitos (Culex pipiens pallens) at the last instar larval stage are released, and after 1 day, the state of the house mosquito larvae is examined, and the mortality of insects is calculated by the following equation. [formula]

For assay [7], the system named is cotton worm (Spodoptera litura). Kind of assay: Test Method 3: sprayed cabbage leaves fed to second instar cotton worm. Particulars: 120 h, second instar larvae, after 5 days, 25°C, read-out: mortality of insects. Here is the method: as §2
Cabbage (Brassicae oleracea) seedling (on the developmental stage of the second to third true leaf) is planted in a cup, and the diluted solutions are sprayed into the seedling at a ratio of 20 mL/seedling. Thereafter, the stem and leaf thereof are cut out and then is installed into a cup that is covered with filter paper on the bed of the cup. Five (5) cotton worm (Spodoptera litura) at the second instar larval stage are released into the cup. After 5 days, the number of the surviving insects is counted, and the mortality of insects is calculated by the following equation. [formula]

For assay [8], the system named is housefly (Musca domestica). Kind of assay: Test Method 8: coated container contact test, housefly. Particulars: 24 h, 40 mg/m^2, female adults, after one (1) day, 25°C, read-out: mortality of insects. Here is the method: as §1
Acetone solution in which test compounds are adjusted to 800 ppm are prepared, and the solution is poured into a container having an internal volume of 20 mL, and the solution is coated uniformly on an inner face of the container such that the test compound is made to be 40 mg/m^2, and the container is then dried.
Five (5) housefly (Musca domestica) female adults are placed in the container, and the cup is covered with the lid. After the prescribed timing is passed, the state of the housefly is examined, and the mortality of insects is calculated by the following equation. [formula]

Assay [9] has as its system cotton worm (Spodoptera litura). Kind of assay: Test Method 9: sprayed cabbage seedling, third instar cotton worm (Formulation example 5). Particulars: 144 h, third instar larvae, after 6 days, 25°C, read-out: controlling value. How it is done:
as §2
Cabbage (Brassicae oleracea) seedling (on the developmental stage of the third to fourth true leaf) is planted in a cup, and the diluted solutions are sprayed into the seedling at a ratio of 20 mL/seedling. Thereafter, ten (10) cotton worm (Spodoptera litura) at the third instar larval stage are released onto the seedling. After 6 days, the number of the surviving insects is counted, and the mortality of insects is calculated by the following equation. [formula]

For the molecule `CCS(=O)(=O)c1c(C(=O)N(C)c2nc3ccc(C(F)(F)F)cc3s2)nc2ccc(I)cn12` [compound 26], the mortality at 500 ppm in assay [1] is not below 90%; in [2], not below 80%. In addition, the mortality at 200 ppm in [3] was not below 80%; in [4] it was not below 80%; in assay [5], not below 90%. Moreover, the results for the mortality at 50 ppm in assay [4] and in assay [5] were not below 80% and not below 90%, respectively. Besides, in assay [6], the mortality at 3.5 ppm is not below 90%.
On to `CCS(=O)(=O)c1c(C(=O)N(C)c2nc3cc(F)c(F)cc3s2)nc2ccc(Br)cn12` [compound 43], for which the mortality at 500 ppm in assay [7] and in assay [2] was not below 80% in each case. Moreover, the mortality at 40 mg/m2 in [8] was not below 80%. Moreover, the mortality at 50 ppm in [9] was not below 80%. Moreover, the mortality at 200 ppm is not below 80% in assay [9] and not below 90% in [5].
Consider `CCS(=O)(=O)c1c(C(=O)N(C)c2nc3ncc(F)cc3s2)nc2ccc(I)cn12` [compound 76], for which the mortality at 500 ppm was not below 90% in assay [1], not below 80% in assay [7] and not below 80% in [2]. For the same molecule, the mortality at 50 ppm in [9] and in assay [4] was not below 80% each time. The mortality at 200 ppm in assay [9] is not below 80%; in assay [4], not below 80%; in [5] it was not below 90%. The mortality at 3.5 ppm in assay [6] was not below 90%.
`CCS(=O)(=O)c1c(C(=O)N(C)c2nc3c(F)c(F)c(F)c(F)c3s2)nc2ccc(I)cn12` [compound 77]: the mortality at 500 ppm in assay [7] and in assay [2] was not below 80% in each case. Further, the mortality at 200 ppm in assay [3] and in assay [9] was not below 80% each time. Also, the mortality at 40 mg/m2 in [8] was not below 80%. Also, the mortality at 50 ppm in assay [9] was not below 80%.
For `CCS(=O)(=O)c1c(C(=O)N(C)c2nc3cc(Cl)c(F)cc3s2)nc2ccc(I)cn12` [compound 101], the mortality at 500 ppm in [2] was not below 80%. For the same molecule, the mortality at 200 ppm in assay [3], in [9] and in [4] was not below 80% in each case. For the same molecule, the mortality at 50 ppm in [9] and in assay [4] was not below 80% in each case.
As to `CCS(=O)(=O)c1cc(-c2ccccn2)cnc1C(=O)N(C)c1nc2cc(F)c(F)cc2s1` [compound 109], the mortality at 500 ppm in assay [1] is not below 90%; in assay [7], not below 80%; in assay [2] it was not below 80%. Besides, the mortality at 50 ppm is not below 80% in assay [9], not below 80% in [4] and not below 90% in assay [5]. Also, the mortality at 200 ppm in [9] was not below 80%; in assay [4] it was not below 80%; in [5], not below 90%. For the same molecule, the mortality at 3.5 ppm in assay [6] was not below 90%.
Consider `CCS(=O)(=O)c1cc(-c2ncccn2)cnc1C(=O)N(C)c1nc2cc(F)c(F)cc2s1` [compound 111], for which the mortality at 500 ppm in assay [1] was not below 90%; in [7], not below 80%; in assay [2], not below 80%. The mortality at 50 ppm in assay [9] was not below 80%; in assay [4], not below 80%; in assay [5], not below 90%. Moreover, the results for the mortality at 200 ppm in [9], in [4] and in [5] were not below 80%, not below 80% and not below 90%, respectively. In [6], the mortality at 3.5 ppm was not below 90%.
As to `CCS(=O)(=O)c1cc(C2CC2)cnc1C(=O)N(C)c1nc2cc(F)c(F)cc2s1` [compound 115], the values for the mortality at 500 ppm in assay [1], in assay [7] and in assay [2] were not below 90%, not below 80% and not below 80%, respectively. Also, the mortality at 50 ppm in assay [9] was not below 80%; in assay [4], not below 80%; in assay [5] it was not below 90%. Also, the mortality at 200 ppm is not below 80% in assay [9], not below 80% in assay [4] and not below 90% in [5]. Further, the mortality at 3.5 ppm in assay [6] is not below 90%.
For the molecule `CCOc1cnc(C(=O)N(C)c2nc3cc(F)c(F)cc3s2)c(S(=O)(=O)CC)c1` [compound 125], the mortality at 500 ppm is not below 90% in assay [1], not below 80% in assay [7] and not below 80% in [2]. For the same molecule, the values for the mortality at 50 ppm in assay [9], in [4] and in assay [5] were not below 80%, not below 80% and not below 90%, respectively. In addition, the mortality at 200 ppm is not below 80% in [9], not below 80% in assay [4] and not below 90% in [5]. For the same molecule, the mortality at 3.5 ppm in assay [6] was not below 90%.
For the molecule `CCS(=O)(=O)c1ccc(-c2ncccn2)nc1C(=O)N(C)c1nc2cc(F)c(F)cc2s1` [compound 130], the mortality at 500 ppm in assay [1] was not below 90%; in [7], not below 80%; in [2] it was not below 80%. Moreover, the mortality at 50 ppm in assay [9] is not below 80%; in assay [4], not below 80%; in [5], not below 90%. Also, the mortality at 200 ppm is not below 80% in [9], not below 80% in assay [4] and not below 90% in [5]. The mortality at 3.5 ppm in [6] is not below 90%.
On to `CCS(=O)(=O)c1ccc(NC)nc1C(=O)N(C)c1nc2cc(F)c(F)cc2s1` [compound 134], for which the mortality at 500 ppm in assay [1] was not below 90%; in assay [7], not below 80%; in [2] it was not below 80%. In addition, the mortality at 50 ppm in assay [9] was not below 80%; in assay [4] it was not below 80%; in assay [5], not below 90%. Further, the mortality at 200 ppm is not below 80% in assay [9], not below 80% in [4] and not below 90% in assay [5]. Further, the mortality at 3.5 ppm in assay [6] was not below 90%.
As for `CCS(=O)(=O)c1ccc(NC)nc1C(=O)N(C)c1nc2cc(F)c(F)c(F)c2s1` [compound 138], the mortality at 500 ppm in [1] is not below 90%; in assay [7], not below 80%; in assay [2], not below 80%. Moreover, the mortality at 40 mg/m2 in [8] is not below 80%. For the same molecule, the mortality at 50 ppm was not below 80% in assay [9], not below 80% in assay [4] and not below 90% in assay [5]. Further, the mortality at 200 ppm was not below 80% in assay [9], not below 80% in assay [4] and not below 90% in assay [5]. Besides, in assay [6], the mortality at 3.5 ppm was not below 90%.
For `CCS(=O)(=O)c1ccc(NC2CC2)nc1C(=O)N(C)c1nc2cc(F)c(F)c(F)c2s1` [compound 139], the mortality at 500 ppm in [7] and in [2] was not below 80% in each case. The mortality at 40 mg/m2 in assay [8] is not below 80%. The values for the mortality at 50 ppm in assay [9], in assay [4] and in assay [5] were not below 80%, not below 80% and not below 90%, respectively. For the same molecule, the mortality at 200 ppm in assay [9] is not below 80%; in assay [4], not below 80%; in [5], not below 90%. Further, in assay [6], the mortality at 3.5 ppm was not below 90%.
